The NIST ThermoML archive (doi:10.1021/je300234g)

What was measured:
[1] = relative permittivity at zero frequency (dimensionless); settings: 101.3 kPa, Liquid, Parallel plate capacitor
[2] = Crystal; visual observation

C1COCCOCCOCCOCCOCCO1 [1,4,7,10,13,16-hexaoxacyclooctadecane]
[1]
Settings	relative permittivity at zero frequency
315.65 K	8.9
318.15 K	8.86
320.65 K	8.82
323.15 K	8.77
325.65 K	8.73
328.15 K	8.69
330.65 K	8.64
333.15 K	8.59
335.65 K	8.54
338.15 K	8.49
340.65 K	8.44
343.15 K	8.39
345.65 K	8.34
348.15 K	8.29
350.65 K	8.24
353.15 K	8.19

Settings	Normal melting temperature [°C]
[2]	43.4

C1COCCOCCOCCOCCO1 [1,4,7,10,13-pentaoxacyclopentadecane]
[1]
Settings	relative permittivity at zero frequency
273.15 K	17.82
275.65 K	17.56
278.15 K	17.3
280.65 K	17.05
283.15 K	16.81
285.65 K	16.57
288.15 K	16.34
290.65 K	16.11
293.15 K	15.89
295.65 K	15.68
298.15 K	15.48
300.65 K	15.28
303.15 K	15.08
305.65 K	14.88
308.15 K	14.69
310.65 K	14.5
313.15 K	14.31
315.65 K	14.14
318.15 K	13.96
320.65 K	13.79
323.15 K	13.63
325.65 K	13.46
328.15 K	13.3
330.65 K	13.15
333.15 K	13

Settings	Normal melting temperature [°C]
[2]	-20

C1COCCOCCOCCO1 [1,4,7,10-tetraoxacyclododecane]
[1]
Settings	relative permittivity at zero frequency
295.65 K	10.95
298.15 K	10.82
300.65 K	10.7
303.15 K	10.58
305.65 K	10.45
308.15 K	10.34
310.65 K	10.22
313.15 K	10.11
315.65 K	10
318.15 K	9.9
320.65 K	9.79
323.15 K	9.69
325.65 K	9.59
328.15 K	9.49
330.65 K	9.41
333.15 K	9.31
335.65 K	9.22
338.15 K	9.13
340.65 K	9.04
343.15 K	8.94
345.65 K	8.86
348.15 K	8.76
350.65 K	8.68
353.15 K	8.59

Settings	Normal melting temperature [°C]
[2]	16
